Reference: article PMC9250534, “Synthesis and direct assay of large macrocycle diversities by combinatorial late-stage modification at picomole scale” (Nature Communications, 2022)

These compounds were tested against MDM2 (Homo sapiens, UniProt Q00987) (assay: MDM2 binding screen of Libraries 3 and 4: displacement of fluorescent probe F-M8 at 750 nM macrocycle). Details: Panel b, Library 3: 63 scaffolds combinatorially acylated with 15 carboxylic acids at 30 picomole scale; displacement of fluorescent peptide probe; macrocycle 750 nM.
In short: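 Competition with nutlin-3a was run using the fluorescein conjugate. Library members came from scaffolds reacted 6 h at room temperature with carboxylic acids (20 equiv.), HBTU and DABCO in DMSO. Quenching was overnight in Tris-Cl pH 7.4 buffer with 0.01% Tween20.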

MDM2, sequence (Q00987 whole entry): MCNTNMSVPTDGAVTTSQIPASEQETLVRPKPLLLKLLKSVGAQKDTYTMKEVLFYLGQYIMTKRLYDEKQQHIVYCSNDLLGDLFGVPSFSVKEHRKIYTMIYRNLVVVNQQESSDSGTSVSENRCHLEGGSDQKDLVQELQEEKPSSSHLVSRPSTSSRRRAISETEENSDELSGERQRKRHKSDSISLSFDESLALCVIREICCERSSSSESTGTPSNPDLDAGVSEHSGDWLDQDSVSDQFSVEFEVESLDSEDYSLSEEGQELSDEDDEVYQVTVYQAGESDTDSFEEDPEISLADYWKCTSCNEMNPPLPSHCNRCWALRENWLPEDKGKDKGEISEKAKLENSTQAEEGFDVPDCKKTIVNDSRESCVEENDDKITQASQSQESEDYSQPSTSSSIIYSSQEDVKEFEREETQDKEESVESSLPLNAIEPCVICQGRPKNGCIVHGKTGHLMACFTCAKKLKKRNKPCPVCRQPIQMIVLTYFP

Row | fraction of fluorescent probe displaced | Compound
1 | -0.002 | O=C(/C=C/c1ccncc1)NC[C@H]1NC(=O)[C@H]2CCCN(C2)C(=O)CCSSCCNC(=O)[C@H](Cc2c[nH]c3ccccc23)NC1=O [X-Nip-D-Dap-Trp + Acid 106]
2 | -0.012 | O=C(/C=C/c1ccc2ccccc2c1)NC[C@H]1NC(=O)[C@H]2CCCN(C2)C(=O)CCSSCCNC(=O)[C@H](Cc2c[nH]c3ccccc23)NC1=O [X-Nip-D-Dap-Trp + Acid 112]
3 | -0.019 | CC(Oc1cccc(Cl)c1)C(=O)NC[C@H]1NC(=O)[C@H]2CCCN(C2)C(=O)CCSSCCNC(=O)[C@H](Cc2c[nH]c3ccccc23)NC1=O (stereo partly drawn) [X-Nip-D-Dap-Trp + Acid 113]
4 | 0.041 | O=C(/C=C/c1ccc(Cl)cc1)NC[C@@H]1NC(=O)[C@H]2CCCN(C2)C(=O)CCSSCCNC(=O)[C@H](Cc2cccc3ccccc23)NC1=O [X-Nip-Dap-1-NaI + Acid 108]
5 | 0.021 | O=C(/C=C/c1ccc(Cl)cc1)NC[C@@H]1NC(=O)[C@H]2CCCN(C2)C(=O)CCSSCCNC(=O)[C@H](Cc2ccc3ccccc3c2)NC1=O [X-Nip-Dap-2-Nal + Acid 108]
6 | 0.181 | O=C(NC[C@@H]1NC(=O)[C@H]2CCCN(C2)C(=O)CCSSCCNC(=O)[C@H](Cc2c[nH]c3cc(Cl)ccc23)NC1=O)c1ccc(Cl)s1 [X-Nip-Dap-Cl-Trp + Acid 14]
7 | 0.232 | O=C(NC[C@@H]1NC(=O)[C@H]2CCCN(C2)C(=O)CCSSCCNC(=O)[C@H](Cc2c[nH]c3cc(Cl)ccc23)NC1=O)c1ccc2ccccc2c1 [X-Nip-Dap-Cl-Trp + Acid 107]
8 | 0.108 | O=C(/C=C/c1ccc(Cl)cc1)NC[C@@H]1NC(=O)[C@H]2CCCN(C2)C(=O)CCSSCCNC(=O)[C@H](Cc2c[nH]c3cc(Cl)ccc23)NC1=O [X-Nip-Dap-Cl-Trp + Acid 108]
9 | 0.075 | O=C(NC[C@@H]1NC(=O)[C@H]2CCCN(C2)C(=O)CCSSCCNC(=O)[C@H](Cc2c[nH]c3cc(Cl)ccc23)NC1=O)c1cccc(Oc2ccccc2)c1 [X-Nip-Dap-Cl-Trp + Acid 111]
10 | 0.221 | O=C(/C=C/c1ccc2ccccc2c1)NC[C@@H]1NC(=O)[C@H]2CCCN(C2)C(=O)CCSSCCNC(=O)[C@H](Cc2c[nH]c3cc(Cl)ccc23)NC1=O [X-Nip-Dap-Cl-Trp + Acid 112]
11 | 0.008 | CC(Oc1cccc(Cl)c1)C(=O)NC[C@@H]1NC(=O)[C@H]2CCCN(C2)C(=O)CCSSCCNC(=O)[C@H](Cc2c[nH]c3cc(Cl)ccc23)NC1=O (stereo partly drawn) [X-Nip-Dap-Cl-Trp + Acid 113]
12 | -0.012 | O=C(CCS(=O)(=O)c1ccccc1)NC[C@@H]1NC(=O)[C@H]2CCCN(C2)C(=O)CCSSCCNC(=O)[C@H](Cc2c[nH]c3cc(Cl)ccc23)NC1=O [X-Nip-Dap-Cl-Trp + Acid 114]

Continued, compound first:

Row | Compound | fraction of fluorescent probe displaced
13 | O=C(NC[C@H]1NC(=O)[C@H]2CCCN(C2)C(=O)CCSSCCNC(=O)[C@H](Cc2c[nH]c3ccccc23)NC1=O)c1cccc(Oc2ccccc2)c1 [X-Nip-D-Dap-Trp + Acid 111] | 0.008
14 | O=C(CCS(=O)(=O)c1ccccc1)NC[C@H]1NC(=O)[C@H]2CCCN(C2)C(=O)CCSSCCNC(=O)[C@H](Cc2c[nH]c3ccccc23)NC1=O [X-Nip-D-Dap-Trp + Acid 114] | -0.00533
15 | O=C(NC[C@@H]1NC(=O)[C@H]2CCCN(C2)C(=O)CCSSCCNC(=O)[C@H](Cc2cccc3ccccc23)NC1=O)c1ccc(Cl)s1 [X-Nip-Dap-1-NaI + Acid 14] | 0.028
16 | O=C(NC[C@@H]1NC(=O)[C@H]2CCCN(C2)C(=O)CCSSCCNC(=O)[C@H](Cc2cccc3ccccc23)NC1=O)c1ccc2ccccc2c1 [X-Nip-Dap-1-NaI + Acid 107] | 0.056
17 | O=C(/C=C/c1ccc(OCc2ccccc2)cc1)NC[C@@H]1NC(=O)[C@H]2CCCN(C2)C(=O)CCSSCCNC(=O)[C@H](Cc2cccc3ccccc23)NC1=O [X-Nip-Dap-1-NaI + Acid 110] | 0.008
18 | O=C(/C=C/c1ccc2ccccc2c1)NC[C@@H]1NC(=O)[C@H]2CCCN(C2)C(=O)CCSSCCNC(=O)[C@H](Cc2cccc3ccccc23)NC1=O [X-Nip-Dap-1-NaI + Acid 112] | 0.095
19 | CC(Oc1cccc(Cl)c1)C(=O)NC[C@@H]1NC(=O)[C@H]2CCCN(C2)C(=O)CCSSCCNC(=O)[C@H](Cc2cccc3ccccc23)NC1=O (stereo partly drawn) [X-Nip-Dap-1-NaI + Acid 113] | -0.019
20 | O=C(NC[C@@H]1NC(=O)[C@H]2CCCN(C2)C(=O)CCSSCCNC(=O)[C@H](Cc2ccc3ccccc3c2)NC1=O)c1ccc(Cl)s1 [X-Nip-Dap-2-Nal + Acid 14] | 0.015
21 | O=C(/C=C/c1ccc(OCc2ccccc2)cc1)NC[C@@H]1NC(=O)[C@H]2CCCN(C2)C(=O)CCSSCCNC(=O)[C@H](Cc2ccc3ccccc3c2)NC1=O [X-Nip-Dap-2-Nal + Acid 110] | 0.021
22 | O=C(/C=C/c1ccc2ccccc2c1)NC[C@@H]1NC(=O)[C@H]2CCCN(C2)C(=O)CCSSCCNC(=O)[C@H](Cc2ccc3ccccc3c2)NC1=O [X-Nip-Dap-2-Nal + Acid 112] | 0.021

Same assay, conditions: Panel c, Library 4: best nine scaffolds and 15 additional carboxylic acids; displacement of fluorescent probe

Row | fraction of fluorescent probe displaced | Compound
23 | 0.052 | O=C(/C=C/c1ccc(F)cc1)NC[C@@H]1NC(=O)[C@H]2CCCN(C2)C(=O)CCSSCCNC(=O)[C@H](Cc2cccc3ccccc23)NC1=O [X-Nip-Dap-1-NaI + Acid 116]
24 | 0.069 | CCOc1ccc(/C=C/C(=O)NC[C@@H]2NC(=O)[C@H]3CCCN(C3)C(=O)CCSSCCNC(=O)[C@H](Cc3cccc4ccccc34)NC2=O)cc1 [X-Nip-Dap-1-NaI + Acid 117]
25 | -0.00464 | CCCOc1ccc(/C=C/C(=O)NC[C@@H]2NC(=O)[C@H]3CCCN(C3)C(=O)CCSSCCNC(=O)[C@H](Cc3cccc4ccccc34)NC2=O)cc1 [X-Nip-Dap-1-NaI + Acid 118]
26 | 0.0035 | O=C(/C=C/c1ccc(Cl)c(Cl)c1)NC[C@@H]1NC(=O)[C@H]2CCCN(C2)C(=O)CCSSCCNC(=O)[C@H](Cc2cccc3ccccc23)NC1=O [X-Nip-Dap-1-NaI + Acid 119]
27 | -0.00464 | O=C(/C=C/c1cccc(Cl)c1)NC[C@@H]1NC(=O)[C@H]2CCCN(C2)C(=O)CCSSCCNC(=O)[C@H](Cc2cccc3ccccc23)NC1=O [X-Nip-Dap-1-NaI + Acid 121]
28 | 0.0035 | CC(C)c1ccc(/C=C/C(=O)NC[C@@H]2NC(=O)[C@H]3CCCN(C3)C(=O)CCSSCCNC(=O)[C@H](Cc3cccc4ccccc34)NC2=O)cc1 [X-Nip-Dap-1-NaI + Acid 127]
29 | 0.052 | O=C(/C=C/c1ccc(F)cc1)NC[C@@H]1NC(=O)[C@H]2CCCN(C2)C(=O)CCSSCCNC(=O)[C@H](Cc2ccc3ccccc3c2)NC1=O [X-Nip-Dap-2-Nal + Acid 116]
30 | 0.020 | O=C(/C=C/c1ccc(Cl)c(Cl)c1)NC[C@@H]1NC(=O)[C@H]2CCCN(C2)C(=O)CCSSCCNC(=O)[C@H](Cc2ccc3ccccc3c2)NC1=O [X-Nip-Dap-2-Nal + Acid 119]
31 | -0.021 | CC(C)c1ccc(/C=C/C(=O)NC[C@@H]2NC(=O)[C@H]3CCCN(C3)C(=O)CCSSCCNC(=O)[C@H](Cc3ccc4ccccc4c3)NC2=O)cc1 [X-Nip-Dap-2-Nal + Acid 127]
32 | 0.289 | O=C(/C=C/c1ccc(F)cc1)NC[C@@H]1NC(=O)[C@H]2CCCN(C2)C(=O)CCSSCCNC(=O)[C@H](Cc2c[nH]c3cc(Cl)ccc23)NC1=O [X-Nip-Dap-Cl-Trp + Acid 116]
33 | 0.207 | CCOc1ccc(/C=C/C(=O)NC[C@@H]2NC(=O)[C@H]3CCCN(C3)C(=O)CCSSCCNC(=O)[C@H](Cc3c[nH]c4cc(Cl)ccc34)NC2=O)cc1 [X-Nip-Dap-Cl-Trp + Acid 117]
34 | 0.134 | O=C(/C=C/c1ccc(Cl)c(Cl)c1)NC[C@@H]1NC(=O)[C@H]2CCCN(C2)C(=O)CCSSCCNC(=O)[C@H](Cc2c[nH]c3cc(Cl)ccc23)NC1=O [X-Nip-Dap-Cl-Trp + Acid 119]

Further lines, the compound ahead of its results:

Row | Compound | fraction of fluorescent probe displaced
35 | O=C(/C=C/c1cccc(C(F)(F)F)c1)NC[C@@H]1NC(=O)[C@H]2CCCN(C2)C(=O)CCSSCCNC(=O)[C@H](Cc2cccc3ccccc23)NC1=O [X-Nip-Dap-1-NaI + Acid 122] | 0.0035
36 | CC(=Cc1ccccc1)C(=O)NCC1NC(=O)C2CCCN(C2)C(=O)CCSSCCNC(=O)C(Cc2cccc3ccccc23)NC1=O (stereo not drawn) [X-Nip-Dap-1-NaI + Acid 123] | -0.013
37 | O=C(NC[C@@H]1NC(=O)[C@H]2CCCN(C2)C(=O)CCSSCCNC(=O)[C@H](Cc2cccc3ccccc23)NC1=O)c1cnc2ccccc2n1 [X-Nip-Dap-1-NaI + Acid 130] | 0.020
38 | CCOc1ccc(/C=C/C(=O)NC[C@@H]2NC(=O)[C@H]3CCCN(C3)C(=O)CCSSCCNC(=O)[C@H](Cc3ccc4ccccc4c3)NC2=O)cc1 [X-Nip-Dap-2-Nal + Acid 117] | 0.069
39 | CCCOc1ccc(/C=C/C(=O)NC[C@@H]2NC(=O)[C@H]3CCCN(C3)C(=O)CCSSCCNC(=O)[C@H](Cc3ccc4ccccc4c3)NC2=O)cc1 [X-Nip-Dap-2-Nal + Acid 118] | 0.012
40 | O=C(/C=C/c1cccc(C(F)(F)F)c1)NC[C@@H]1NC(=O)[C@H]2CCCN(C2)C(=O)CCSSCCNC(=O)[C@H](Cc2ccc3ccccc3c2)NC1=O [X-Nip-Dap-2-Nal + Acid 122] | 0.012
41 | CC(=Cc1ccccc1)C(=O)NCC1NC(=O)C2CCCN(C2)C(=O)CCSSCCNC(=O)C(Cc2ccc3ccccc3c2)NC1=O (stereo not drawn) [X-Nip-Dap-2-Nal + Acid 123] | 0.012
42 | O=C(NC[C@@H]1NC(=O)[C@H]2CCCN(C2)C(=O)CCSSCCNC(=O)[C@H](Cc2ccc3ccccc3c2)NC1=O)c1cnc2ccccc2n1 [X-Nip-Dap-2-Nal + Acid 130] | 0.0035
